Reference: US20150105252A1, “SUBSTITUTED PYRAZOLES AS HERBICIDES” (E I DU PONT DE NEMOURS AND COMPANY, priority 2013, published 2015)

Assays:
velvetleaf [1] = test: Test A postemergence; type: in vivo, Abutilon theophrasti; conditions: Postemergence, 1000 g ai/ha; visual rating after approx. 10 days, 0 to 100 scale (0 no effect, 100 complete control)
In short: (§1)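 After sowing in a sand–loam mix, pots received compound preemergence by directed soil spray, or postemergence once plants reached the one- to two-leaf stage (2–10 cm). Formulation contained surfactant in a non-phytotoxic solvent. Injury was scored visually after ~10 greenhouse days, 0–100 scale.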

johnsongrass = test: Test C postemergence; type: in vivo, Sorghum halepense; conditions: for Johnsongrass plant response rating: Postemergence, 31 g ai/ha, scale 0 to 100; for Plant response rating, Johnsongrass: postemergence
Source text: (§2) Seeds of plant species selected from blackgrass (Alopecurus myosuroides), ryegrass, Italian (Italian ryegrass, Lolium multiflorum), wheat (winter wheat, Triticum aestivum), galium (catchweed bedstraw, Galium aparine), corn (Zea mays), crabgrass, large (large crabgrass, Digitaria sanguinalis), foxtail, giant (giant foxtail, Setaria faberii), johnsongrass (Sorghum halepense), lambsquarters (Chenopodium album), morningglory (Ipomoea coccinea), nutsedge, yellow (yellow nutsedge, Cyperus esculentus), pigweed (redroot pigweed, Amaranthus retroflexus), ragweed (common ragweed, Ambrosia elation), soybean (Glycine max), barnyardgrass (Echinochloa crus-galli), oilseed rape (Brassica napus), waterhemp (common waterhemp, Amaranthus rudis), oat, wild (wild oat, Avena fatua), kochia (Kochia scoparia), Surinam grass (Brachiaria decumbens), foxtail, green (green foxtail, Setaria viridis), goosegrass (Eleusine indica), bromegrass, downy (downy bromegrass, Bromus tectorum), nightshade (eastern black nightshade, Solanum ptycanthum), cocklebur (common cocklebur, Xanthium strumarium), cupgrass, woolly (woolly cupgrass, Eriochloa villosa), bermudagrass (Cynodon dactylon), sunflower, (common oilseed sunflower, Helianthus annuus), Russian thistle (Salsola kali), and velvetleaf (Abutilon theophrasti) were planted into a blend of loam soil and sand and treated preemergence with test chemicals formulated in a non-phytotoxic solvent mixture which included a surfactant.
(§3) At the same time, plants selected from these crop and weed species and also chickweed (common chickweed, Stellaria media), canarygrass (littleseed canarygrass, Phalaris minor), and deadnettle (henbit deadnettle, Lamium amplexicaule), were planted in pots containing Redi-Earth® planting medium (Scotts Company, 14111 Scottslawn Road, Marysville, Ohio 43041) comprising spaghnum peat moss, vermiculite, wetting agent and starter nutrients and treated with postemergence applications of test chemicals formulated in the same manner. Plants ranged in height from 2 to 18 cm (1- to 4-leaf stage) for postemergence treatments. Treated plants and controls were maintained in a greenhouse for 13 to 15 days, after which time all species were compared to controls and visually evaluated. Plant response ratings, summarized in Table C, are based on a scale of 0 to 100 where 0 is no effect and 100 is complete control. A dash (-) response means no test result.

oat, wild = test: Test C postemergence; type: in vivo, Avena fatua; conditions: for Oat, Wild plant response rating: Postemergence, 31 g ai/ha, scale 0 to 100; for Plant response rating, Oat, Wild: postemergence
Source text: as §2, §3

velvetleaf [2] = test: Test C postemergence; type: in vivo, Abutilon theophrasti; conditions: postemergence; for Velvetleaf plant response rating: 62 g ai/ha, scale 0 to 100
Source text: as §2, §3

morningglory [3] = test: Test A postemergence; type: in vivo, Ipomoea spp.; conditions: Postemergence, 1000 g ai/ha; visual rating after approx. 10 days, 0 to 100 scale (0 no effect, 100 complete control)
In short: as §1

morningglory [4] = test: Test C postemergence; type: in vivo, Ipomoea coccinea; conditions: for Morningglory plant response rating: Postemergence, 31 g ai/ha, scale 0 to 100; for Plant response rating, Morningglory: postemergence
Source text: as §2, §3

wheat = test: Test A postemergence; type: in vivo, Triticum aestivum; conditions: Postemergence, 1000 g ai/ha; visual rating after approx. 10 days, 0 to 100 scale (0 no effect, 100 complete control)
In short: as §1

chickweed = test: Test C postemergence; type: in vivo, Stellaria media; conditions: for Chickweed plant response rating: Postemergence, 31 g ai/ha, scale 0 to 100; for Plant response rating, Chickweed: postemergence
Source text: as §2, §3

[5] = 250 g ai/ha, scale 0 to 100 (0 no effect, 100 complete control)
[6] = 62 g ai/ha, scale 0 to 100, 0 no effect, 100 complete control
[7] = 125 g ai/ha, scale 0 to 100, 0 no effect, 100 complete control

Row | SMILES | Velvetleaf plant response rating (velvetleaf [1]) | Johnsongrass plant response rating (johnsongrass) | Plant response rating, Johnsongrass (johnsongrass; [5]) | Plant response rating, Johnsongrass (johnsongrass; [6]) | Plant response rating, Johnsongrass (johnsongrass; [7]) | Oat, Wild plant response rating (oat, wild) | Plant response rating, Oat, Wild (oat, wild; [5]) | Plant response rating, Oat, Wild (oat, wild; [6]) | Plant response rating, Oat, Wild (oat, wild; [7]) | Velvetleaf plant response rating (velvetleaf [2]) | Plant response rating, Velvetleaf (velvetleaf [2]; [5]) | Plant response rating, Velvetleaf (velvetleaf [2]; [7]) | Morningglory plant response rating (morningglory [3]) | Morningglory plant response rating (morningglory [4]) | Plant response rating, Morningglory (morningglory [4]; [5]) | Plant response rating, Morningglory (morningglory [4]; [6]) | Plant response rating, Morningglory (morningglory [4]; [7]) | Wheat plant response rating (wheat) | Chickweed plant response rating (chickweed) | Plant response rating, Chickweed (chickweed; [5]) | other results
1 | CCc1cc(C(=O)NCC(F)(F)F)nn1Cc1cccc(OC(F)(F)F)c1 [Compound 20] | 90 | 0 | 10 | 0 | 5 | 15 | 20 | 15 | 20 | 45 | 60 | 45 | 100 | 10 | 70 | 25 | 60 | 40 | 45 | 75 | Plant response rating, Chickweed (chickweed; [6]): 45; Plant response rating, Chickweed (chickweed; [7]): 75
2 | CCCNC(=O)c1cc(CC)n(Cc2cccc(OC(F)(F)F)c2)n1 [Compound 27] | 100 | 0 | 5 | 0 | 5 | 10 | 15 | 10 | 15 | 15 | 45 | 20 | 100 | 5 | 75 | 60 | 60 | 40 | 20 | 75 | Plant response rating, Chickweed (chickweed; [6]): 20; Plant response rating, Chickweed (chickweed; [7]): 40
